From patent US9096624B2 (OSI Pharmaceuticals, LLC, priority 2009, dated 2015)

What was measured:
[1] = target: T1, FAK (Homo sapiens, UniProt Q05397); assay: Cell-based capture ELISA for inhibition of FAK autophosphorylation [pY397] in MiaPaCa2 cells
Experimental: Cell-Based Assays for Inhibition of FAK Autophosphorylation: MiaPaCa2 and U87MG
ELISA kit from Invitrogen (KHO0441).
Reagents Provided in Biosource FAK [pY397]
The cells were then suspended in cell assay medium.

[2] = target: T1, FAK; assay: biochemical
[3] = MIA-PaCa2 cells, + 50% mouse plasma (Table 3), read-out: Mean FAK Cell Mechanistic IC50 + 50% mP MIA-PaCa2
[4] = MIA-PaCa2 cells on fibronectin, 2 h, no plasma, read-out: Mean FAK Cell Mechanistic IC50 MIA-PaCa2
[5] = MIA-PaCa2 cells, + 50% human plasma, read-out: Mean FAK Cell Mechanistic IC50 + 50% hP MIA-PaCa2
[6] = MIA-PaCa2 cells, + 50% mouse plasma (Table 2), read-out: Mean FAK Cell Mechanistic IC50 + 50% mP MIA-PaCa2

T1 sequence (Q05397 whole entry): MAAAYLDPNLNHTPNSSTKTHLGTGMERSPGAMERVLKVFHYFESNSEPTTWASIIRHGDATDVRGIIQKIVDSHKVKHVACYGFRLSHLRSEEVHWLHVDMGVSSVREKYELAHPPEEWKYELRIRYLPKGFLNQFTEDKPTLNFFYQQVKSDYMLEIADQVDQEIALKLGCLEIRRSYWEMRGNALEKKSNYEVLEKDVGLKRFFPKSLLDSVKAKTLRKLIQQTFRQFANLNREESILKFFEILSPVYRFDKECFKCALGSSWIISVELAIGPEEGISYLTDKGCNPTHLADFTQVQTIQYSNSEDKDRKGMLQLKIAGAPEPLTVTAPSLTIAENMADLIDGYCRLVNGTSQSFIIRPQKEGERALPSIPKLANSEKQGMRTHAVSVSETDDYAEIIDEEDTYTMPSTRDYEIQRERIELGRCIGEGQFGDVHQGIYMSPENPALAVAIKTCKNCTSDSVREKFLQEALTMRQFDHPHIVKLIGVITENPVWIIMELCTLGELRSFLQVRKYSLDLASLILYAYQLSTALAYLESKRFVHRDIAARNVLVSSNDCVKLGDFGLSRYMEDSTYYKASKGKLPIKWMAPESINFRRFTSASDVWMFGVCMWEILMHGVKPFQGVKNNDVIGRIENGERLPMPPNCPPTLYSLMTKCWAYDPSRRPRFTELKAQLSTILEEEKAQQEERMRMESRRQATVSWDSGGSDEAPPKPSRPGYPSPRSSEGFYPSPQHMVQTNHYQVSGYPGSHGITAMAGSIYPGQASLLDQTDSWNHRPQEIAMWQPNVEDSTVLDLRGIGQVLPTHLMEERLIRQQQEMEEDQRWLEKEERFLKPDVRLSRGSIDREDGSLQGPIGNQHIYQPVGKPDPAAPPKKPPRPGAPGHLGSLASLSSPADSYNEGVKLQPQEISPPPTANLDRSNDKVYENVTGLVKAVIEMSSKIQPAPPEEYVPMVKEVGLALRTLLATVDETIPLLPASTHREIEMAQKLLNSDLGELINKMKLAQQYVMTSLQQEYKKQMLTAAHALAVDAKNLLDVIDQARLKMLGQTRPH

Row | Compound | IC50 [1, 3] [nM] | IC50 [2] [nM] | IC50 [1, 4] [nM] | IC50 [1, 5] [nM] | IC50 [1, 6] [nM]
1 | CCOP(=O)(Cc1ccc(Nc2ncc(C(F)(F)F)c(Nc3ccc([C@H]4CC[C@@H](OCC)CC4)c4c3C(=O)N(C)C4)n2)c(OC)c1)OCC [Example 167, Diethyl (4-{[4-{[7-(cis-4-ethoxycyclohexyl)-2-methyl-3-oxo-2,3-dihydro-1H-isoindol-4-yl]amino}-5-(trifluoromethyl)pyrimidin-2-yl]amino}-3-methoxybenzyl) phosphonate] | < 1000 | < 1000 |  |  | 
2 | CCOP(=O)(Cc1ccc(Nc2ncc(C(F)(F)F)c(Nc3ccc([C@H]4CC[C@@H](O)CC4)cc3C(=O)NC)n2)c(OC)c1)OCC [Example 140, Diethyl (4-{[4-{[4-(cis-4-hydroxycyclohexyl)-2-(methylcarbamoyl)phenyl]amino}-5-(trifluoromethyl)pyrimidin-2-yl]amino}-3-methoxybenzyl)phosphonate] | < 1000 | < 1000 |  |  | 
3 | CCOP(=O)(Cc1ccc(Nc2ncc(C(F)(F)F)c(Nc3ccc([C@H]4CC[C@](C)(O)CC4)c4c3C(=O)N(C)C4)n2)c(OC)c1)OCC [Example 196, Diethyl (4-{[4-{[7-(trans-4-hydroxy-4-methylcyclohexyl)-2-methyl-3-oxo-2,3-dihydro-1H-isoindol-4-yl]amino}-5-(trifluoromethyl)pyrimidin-2-yl]amino}-3-methoxybenzyl)phosphonate] | < 1000 | < 1000 |  |  | 
4 | CCOP(=O)(Cc1ccc(Nc2ncc(C(F)(F)F)c(Nc3ccc(N4CCN(C)CC4)c4c3C(=O)N(C)C4)n2)cc1)OCC [Example 201, Diethyl (4-{[4-{[2-methyl-7-(4-methylpiperazin-1-yl)-3-oxo-2,3-dihydro-1H-isoindol-4-yl]amino}-5-(trifluoromethyl)pyrimidin-2-yl]amino}benzyl)phosphonate] | < 1000 | < 1000 |  |  | 
5 | CCOP(=O)(Cc1ccccc1Nc1ncc(C(F)(F)F)c(NCc2cccnc2N(C)S(C)(=O)=O)n1)OCC [Example 3, Diethyl [2-({4-[({2-[methyl(methylsulfonyl)amino]pyridin-3-yl}methyl)amino]-5-(trifluoromethyl)pyrimidin-2-yl}amino)benzyl]phosphonate] |  | < 1000 | > 10000 | > 10000 | 
6 | CCOP(=O)(O)Cc1ccc(Nc2ncc(C(F)(F)F)c(Nc3ccccc3C(=O)NC)n2)c(OC)c1 [Example 143, Ethyl hydrogen (3-methoxy-4-{[4-{[2-(methylcarbamoyl)phenyl]amino}-5-(trifluoromethyl)pyrimidin-2-yl]amino}benzyl)phosphonate] | < 1000 | < 1000 |  |  | 
7 | CCOP(C)(=O)Cc1ccc(Nc2ncc(C(F)(F)F)c(Nc3ccc(N4CCCCC4)c4c3C(=O)N(C)C4)n2)cc1 (centres unmarked) [Example 82, Ethyl methyl(4-{[4-{[2-methyl-3-oxo-7-(piperidin-1-yl)-2,3-dihydro-1H-isoindol-4-yl]amino}-5-(trifluoromethyl)pyrimidin-2-yl]amino}benzyl)phosphinate] |  | < 1000 | < 1000 | < 1000 | 
8 | CCOc1cc(CP(=O)(OCC)OCC)ccc1Nc1ncc(C(F)(F)F)c(Nc2ccc([C@H]3CC[C@H](C(=O)OCC)CC3)c3c2C(=O)N(C)C3)n1 [Example 245, Ethyl trans-4-(7-{[2-({4-[(diethoxyphosphoryl)methyl]-2-ethoxyphenyl}amino)-5-(trifluoromethyl)pyrimidin-4-yl]amino}-2-methyl-1-oxo-2,3-dihydro-1H-isoindol-4-yl)cyclohexanecarboxylate] | 1000 to 10000 | < 1000 |  |  | 
9 | CCOP(=O)(Cc1ccc(Nc2ncc(C(F)(F)F)c(Nc3ccc([C@H]4CC[C@H](OCC)CC4)c4c3C(=O)N(C)C4)n2)cc1)OCC [Example 169, Diethyl (4-{[4-{[7-(trans-4-ethoxycyclohexyl)-2-methyl-3-oxo-2,3-dihydro-1H-isoindol-4-yl]amino}-5-(trifluoromethyl)pyrimidin-2-yl]amino}benzyl)phosphonate] | < 1000 | < 1000 |  |  | 
10 | CCOP(C)(=O)Cc1ccc(Nc2ncc(C(F)(F)F)c(Nc3ccc(C(C)C)c4c3C(=O)N(C)C4)n2)cc1 (centres unmarked) [Example 78, Ethyl methyl(4-{[4-{[2-methyl-3-oxo-7-(propan-2-yl)-2,3-dihydro-1H-isoindol-4-yl]amino}-5-(trifluoromethyl)pyrimidin-2-yl]amino}benzyl)phosphinate] |  | < 1000 | < 1000 |  | 
11 | CCOP(=O)(Cc1ccc(Nc2ncc(C(F)(F)F)c(Nc3ccc(C#N)cc3C(=O)NC)n2)c(OC)c1)OCC [Example 151, Diethyl (4-{[4-{[4-cyano-2-(methylcarbamoyl)phenyl]amino}-5-(trifluoromethyl)pyrimidin-2-yl]amino}-3-methoxybenzyl)phosphonate] | < 1000 | < 1000 |  |  | 
12 | CCOP(C)(=O)Cc1ccc(Nc2ncc(C(F)(F)F)c(Nc3ccc(C#CCO)c4c3C(=O)N(C)C4)n2)cc1 (centres unmarked) [Example 77, Ethyl (4-{[4-{[7-(3-hydroxyprop-1-yn-1-yl)-2-methyl-3-oxo-2,3-dihydro-1H-isoindol-4-yl]amino}-5-(trifluoromethyl)pyrimidin-2-yl]amino}benzyl)methylphosphinate] |  | < 1000 | < 1000 | < 1000 | 
13 | CCOP(=O)(Cc1ccc(Nc2ncc(C(F)(F)F)c(Nc3ccc(N4CC[C@H](O)C4)c4c3C(=O)N(C)C4)n2)c(OC)c1)OCC [Example 84, Diethyl (4-{[4-({7-[(3S)-3-hydroxypyrrolidin-1-yl]-2-methyl-3-oxo-2,3-dihydro-1H-isoindol-4-yl}amino)-5-(trifluoromethyl)pyrimidin-2-yl]amino}-3-methoxybenzyl)phosphonate] |  | < 1000 |  |  | < 1000
14 | CCOP(=O)(Cc1ccc(Nc2ncc(C(F)(F)F)c(Nc3cccc4ccn(C)c(=O)c34)n2)cc1)OCC [Example 131, Diethyl [4-({4-[(2-methyl-1-oxo-1,2-dihydroisoquinolin-8-yl)amino]-5-(trifluoromethyl)pyrimidin-2-yl}amino)benzyl]phosphonate] | < 1000 | < 1000 |  |  | 
15 | CCOP(=O)(Cc1ccc(Nc2ncc(C(F)(F)F)c(Nc3ccc(CN4CCCC4)c4c3C(=O)N(C)C4)n2)c(OC)c1)OCC [Example 110, Diethyl (3-methoxy-4-{[4-{[2-methyl-3-oxo-7-(pyrrolidin-1-ylmethyl)-2,3-dihydro-1H-isoindol-4-yl]amino}-5-(trifluoromethyl)pyrimidin-2-yl]amino}benzyl)phosphonate] | < 1000 | < 1000 |  |  | 
16 | CCOP(=O)(Cc1ccc(Nc2ncc(C(F)(F)F)c(Nc3ccc(N4CCC(O)CC4)c4c3C(=O)N(C)C4)n2)c(OC)c1)OCC [Example 85, Diethyl (4-{[4-{[7-(4-hydroxypiperidin-1-yl)-2-methyl-3-oxo-2,3-dihydro-1H-isoindol-4-yl]amino}-5-(trifluoromethyl)pyrimidin-2-yl]amino}-3-methoxybenzyl)phosphonate] |  | < 1000 |  |  | < 1000
17 | CCOP(=O)(Cc1ccc(Nc2ncc(C(F)(F)F)c(Nc3ccc(-c4cnn(CC(C)(C)O)c4)c4c3C(=O)N(C)C4)n2)c(OC)c1)OCC [Example 72, Diethyl (4-{[4-({7-[1-(2-hydroxy-2-methylpropyl)-1H-pyrazol-4-yl]-2-methyl-3-oxo-2,3-dihydro-1H-isoindol-4-yl}amino)-5-(trifluoromethyl)pyrimidin-2-yl]amino}-3-methoxybenzyl)phosphonate] |  | < 1000 |  |  | < 1000
18 | CCOC(=O)[C@H]1CC[C@H](c2ccc(Nc3nc(Nc4ccc(CP(=O)(OCC)OCC)cc4OC)ncc3C(F)(F)F)c3c2CN(C)C3=O)CC1 [Example 88, Ethyl trans-4-(7-{[2-({4-[(diethoxyphosphoryl)methyl]-2-methoxyphenyl}amino)-5-(trifluoromethyl)pyrimidin-4-yl]amino}-2-methyl-1-oxo-2,3-dihydro-1H-isoindol-4-yl)cyclohexanecarboxylate] |  | < 1000 |  |  | < 1000
19 | CC(C)P(=O)(Cc1ccc(Nc2ncc(C(F)(F)F)c(NCc3cccnc3N(C)S(C)(=O)=O)n2)cc1)C(C)C [Example 8, N-[3-({[2-({4-[(Dipropan-2-ylphosphoryl)methyl]phenyl}amino)-5-(trifluoromethyl)pyrimidin-4-yl]amino}methyl)pyridin-2-yl]-N-methylmethanesulfonamide] |  | < 1000 | < 1000 | < 1000 | < 1000
20 | CCOP(C)(=O)Cc1ccc(Nc2ncc(C(F)(F)F)c(Nc3ccc(N4CCC(O)C4)c4c3C(=O)N(C)C4)n2)cc1 (centres unmarked) [Example 81, Ethyl (4-{[4-{[7-(3-hydroxypyrrolidin-1-yl)-2-methyl-3-oxo-2,3-dihydro-1H-isoindol-4-yl]amino}-5-(trifluoromethyl)pyrimidin-2-yl]amino}benzyl)methylphosphinate] |  | < 1000 | < 1000 | < 1000 | 
21 | COCCOP(=O)(Cc1ccc(Nc2ncc(C(F)(F)F)c(Nc3ccc([C@H]4CC[C@H](O)CC4)c4c3C(=O)N(C)C4)n2)cc1)OCCOC [Example 189, Bis(2-methoxyethyl) (4-{[4-{[7-(trans-4-hydroxycyclohexyl)-2-methyl-3-oxo-2,3-dihydro-1H-isoindol-4-yl]amino}-5-(trifluoromethyl)pyrimidin-2-yl]amino}benzyl)phosphonate] | < 1000 | < 1000 |  |  | 
22 | CCOP(=O)(Cc1ccc(Nc2ncc(C(F)(F)F)c(Nc3ccc(-c4cnn(CCN(CC)CC)c4)c4c3C(=O)N(C)C4)n2)cc1)OCC [Example 175, Diethyl [4-({4-[(7-{1-[2-(diethylamino)ethyl]-1H-pyrazol-4-yl}-2-methyl-3-oxo-2,3-dihydro-1H-isoindol-4-yl)amino]-5-(trifluoromethyl)pyrimidin-2-yl}amino)benzyl]phosphonate] | < 1000 | < 1000 |  |  | 
